Experimental data reported in patent US20160199434A1, “COMPOSITIONS AND METHODS FOR MODULATING DNA METHYLATION” (OHIO STATE INNOVATION FOUNDATION, priority 2013, published 2016).
“Also recorded” adds a separate entry of the source.

Experiments:
[1] = tested on: desmoplakin (DSP) gene promoter; experiment: Methylation-specific PCR of DSP promoter in PyMT breast cancer cells; format: cell-based, mouse
Procedure: FIGS. 3A-3E show the effect of AKB-6899 (25 μM) on methylation of the desmoplakin (DSP) gene promoter in PyMT breast cancer cells (3A), human MDA-MB-231 triple negative breast cancer cells (3B), human C8161.9 melanoma cells (3C), and human MCF-7 breast cancer cells (3D). In FIG. 3A, the DSP promoter was 100% unmethylated (AKB-6899) vs. 99.99% methylated (vehicle). In FIG. 3B, the DSP promoter was 99.62% unmethylated (AKB-6899) v. 99.89% (vehicle). In FIG. 3C, the DSP promoter was 99.90% unmethylated (AKB-6899) v. 42.04% (vehicle). In FIG. 3D, the DSP promoter was 92.48% unmethylated (AKB-6899) v. 98.48% (vehicle). In FIG. 3E, when compared to the vehicle (DMSO), treatment of PyMT cells with AKB-6899 increased DSP expression.
(§1) Because DSP is regulated by ER/PR expression, and because late-stage PyMT tumors lose ER/PR-positivity and heavily metastasize to the lymph nodes and lungs (Lin et al., 2003), the effects of AKB-6899 on more global events that regulate gene expression was evaluated. PyMT tumor cells in culture were treated with DMSO or AKB-6899. Methylation-specific PCR for CpG islands in the desmoplakin promoter were performed. […] Trypan Blue confirmed no cell death in AKB-6899 treated cells when compared to control cells. The experiment was repeated and RNA was isolated from the cells. RT-PCR was performed and the regulation of DNA methyltransferases (DNMTs) was evaluated. […] (FIG. 1A). The decrease in mRNA levels of DNMT-1 and DNMT-3a increased the mRNA level of DSP (FIG. 4A) and increased desmoplakin protein expression (FIG. 5A).

c-Myc promoter = experiment: Percent CpG methylation of c-Myc promoter in HeLa cells; format: cell-based, human; conditions: 5 or 25 μM, compared to DMSO and PBA (FIG. 6A)
Procedure: HeLa cervical cancer cells were left untreated, were treated with DMSO, were treated with 5-AZA, were treated with AKB-6899 (5 or 25 μM), or were treated with PBA (2 mM).

c-Myc = c-Myc expression (relative copy number) in human cervical tumors in animals; format: in vivo; conditions: animal models of human cervical tumors, 17.5 mg/kg (FIG. 7B)
Procedure: Animal models of human cervical tumors were untreated, treated with DMSO, treated with 5-AZA or treated with AKB-6899 (17.5 mg/kg).

[2] = tested on: human A375 melanoma cells; experiment: Tumor growth of human A375 melanoma cells implanted in SCID mice; format: in vivo, mouse; conditions: 19 days after palpable tumor formation, AKB-6899 17.5 mg/kg, Docetaxel 30 mg/kg
Procedure: During treatment, tumor growth was determined. Animals were treated with one the following combinations: vehicle/vehicle, vehicle/AKB-6899 (17.5 mg/kg), Docetaxel (30 mg/kg)/vehicle, or Docetaxel/AKB-6899. 19 days after palpable tumor formation, the tumors in the mice receiving the vehicle/AKB-6899 combination had tumors that were 74% the size of control; the tumors in the mice receiving Docetaxel/vehicle combination had tumors that were 49% the size of control; and the tumors in the mice receiving the Docetaxel/AKB-6899 combination had tumors that were 13% the size of control.

DNMT-3a = DNMT-3a transcription in A549 lung cancer cells; format: cell-based, human; conditions: A549 cells (FIG. 10B)
Excerpt: (§2) In FIG. 10A, AKB-6899 inhibited DNMT-1, DNMT-3a, and DNMT-3b transcription in a dose-dependent manner in human squamous cell carcinoma lung cancer cells (H1703), in vitro. The DMSO-treated DNMT mRNAs are over 1.0, meaning the level of expression is higher than the housekeeping control gene, CAP1. In FIG. 10B, AKB-6899 inhibited DNMT-3a and DNMT-3b transcription in human adenocarcinoma lung cancer cells (A549). The DMSO-treated DNMT mRNAs are under 1.0, meaning the level of expression is lower than the housekeeping control gene, CAP1.

DNMT-3b = DNMT-3b transcription in A549 lung cancer cells; format: cell-based, human; conditions: A549 cells (FIG. 10B)
Excerpt: as §2

[3] = tested on: 23 different gene promoters; experiment: Percent methylation of 23 gene promoters in H1703 squamous cell carcinoma; format: cell-based, human; conditions: H1703, 10 μM and 50 μM, compared to DMSO
Procedure: (§3) FIGS. 11A-11D show the percent methylation for 23 different gene promoters in two types of human lung cancer cells—FIGS. 11A and 11B are directed at H1703 squamous cell carcinoma and FIG. 11C and FIG. 11D are directed at A549 adenocarcinoma. DMSO was used as a vehicle and was used as a control. […] The Dec/PBA condition represents a combination of 5 μM Decitabine (5-aza-2′deoxycytidine (5-AZA), which is a demethylating agent) and 2 mM […] (PBA, HDAC inhibitor). In all promoters tested, and in both types of lung cancer, AKB-6899 demethylated the gene promoters such that the level of % DNA methylation following AKB-6899 treatment was below the level of % DNA methylation of the DMSO-treated control cells (DMSO).

[4] = tested on: 23 different gene promoters; experiment: Percent methylation of 23 gene promoters in A549 adenocarcinoma; format: cell-based, human; conditions: A549, 10 μM and 50 μM, compared to DMSO
Procedure: as §3

DNMT-1 = DNMT-1 mRNA expression in lungs of normal mice after systemic administration; format: in vivo, mouse; conditions: i.p. 17.5 mg/kg three times per week for three weeks, vs DMSO
Procedure: FIGS. 14A-14C show the effects of systemic administration of AKB-6899. Mice were treated three times per week for three weeks with either i.p. AKB-6899 or i.p. DMSO. The lungs were removed and assayed to determine DNMT mRNA expression, percent CpG methylation, and fold change in mRNA. […] The data was standardized to 1.0 by the DMSO levels of the respective gene expression, (n=4 lungs per condition).

PyMT tumor cells = experiment: Trypan Blue cell death check in PyMT tumor cells; format: cell-based; conditions: compared to control cells
Procedure: as §1

[5] = tested on: MDA-MB-231 human breast cancer cells; experiment: RNAseq of microRNAs and snoRNAs in MDA-MB-231 cancer cells; format: cell-based; conditions: MDA-MB-231 cells, compared to DMSO-treated cells
Procedure: The expression of various microRNAs and snoRNAs was evaluated following administration of AKB-6899 to MDA-MB-231 human breast cancer cells. In these cancer cells, AKB-6899 increased expression of several microRNAs, some of which target methylation regulators such as the DNMTs. AKB-6899 also regulated about 20 snoRNAs, some of which are known to guide methylation. Finally, the analysis identified over sixty (60) RNA transcripts in the AKB-6899 treated cancer cells, which transcriptions are yet to annotated. The AKB-6899 treated breast cancer cells were compared to DMSO-treated cancer cells.

In the case of O=C(O)CNC(=O)c1ncc(-c2cccc(F)c2)cc1O [AKB-6899, {[5-(3-Fluorophenyl)-3-hydroxypyridine-2-carbonyl]amino}acetic acid], the DSP promoter unmethylated ([1]; PyMT breast cancer cells, 25 μM (FIG. 3A)) is reported as 100%, the “desmoplakin promoter methylation after treatment” value ([1]; PyMT mouse breast cancer cells) is reported as 0.0% and the “methylation state of DSP promoter CpG islands (in words)” value ([1]; PyMT tumor cells in culture) is reported as “entirely unmethylated; also recorded: near complete”. For the same compound, the “demethylation of c-Myc promoter (percent CpG methylation)” value (c-Myc promoter) was “increase in demethylation”, the c-Myc expression (c-Myc) was “inhibited” and the “tumor size relative to control” value [2] was 74%. For the same compound, the DNMT-3a transcription (DNMT-3a) was “inhibited”, the DNMT-3b transcription (DNMT-3b) was “inhibited” and the “percent DNA methylation of 23 gene promoters” value [3] was “decreased the percent of DNA methylation in a dose response fashion”. For the same compound, the “percent DNA methylation of 23 gene promoters” value [4] was “decreased the percent of DNA methylation in a dose response fashion”, the “DNMT-1 expression in lungs” value (DNMT-1) was “inhibited” and the “cell death by Trypan Blue” value (PyMT tumor cells) was “no cell death”. The “expression of microRNAs” value [5] was “increased”.
